Source: ChEMBL document CHEMBL4017477, “Synthesis and evaluation of 4,6-disubstituted pyrimidines as CNS penetrant pan-muscarinic antagonists with a novel chemotype” (Bioorg Med Chem Lett, 2017)

How the values were obtained:
[1] = biological target: T1, Muscarinic acetylcholine receptor M4 (Homo sapiens, UniProt P08173); experiment: Antagonist activity at recombinant human M4 receptor expressed in CHO cells co-expressing Gqi5 by calcium mobilization assay; type: functional, cell-based
T1 sequence (P08173 whole entry): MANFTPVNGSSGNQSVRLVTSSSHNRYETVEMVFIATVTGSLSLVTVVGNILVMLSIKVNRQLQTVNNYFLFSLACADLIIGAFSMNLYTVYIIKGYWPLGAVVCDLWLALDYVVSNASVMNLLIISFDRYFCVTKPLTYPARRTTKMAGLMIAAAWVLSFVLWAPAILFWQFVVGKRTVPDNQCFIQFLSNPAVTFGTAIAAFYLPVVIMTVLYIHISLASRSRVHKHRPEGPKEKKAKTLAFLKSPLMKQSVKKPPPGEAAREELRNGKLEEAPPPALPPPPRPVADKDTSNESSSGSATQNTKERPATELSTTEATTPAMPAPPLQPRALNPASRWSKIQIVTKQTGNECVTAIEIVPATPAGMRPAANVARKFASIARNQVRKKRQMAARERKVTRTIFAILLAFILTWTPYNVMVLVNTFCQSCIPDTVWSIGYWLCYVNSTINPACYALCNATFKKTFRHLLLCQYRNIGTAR

[2] = biological target: T2, Muscarinic acetylcholine receptor M4 (Homo sapiens) (UniProt P08173); experiment: Antagonist activity at recombinant human M4 receptor expressed in CHO cells co-expressing Gqi5 by calcium mobilization assay relative to acetylcholine; type: functional, cell-based
T2 sequence (whole entry): T1 sequence (P08173 whole entry)

[3] = biological target: T3, Muscarinic acetylcholine receptor M5 (Homo sapiens, UniProt P08912); experiment: Antagonist activity at recombinant human M5 receptor expressed in CHO cells co-expressing Gqi5 by calcium mobilization assay; type: functional, cell-based
T3 sequence (P08912 whole entry): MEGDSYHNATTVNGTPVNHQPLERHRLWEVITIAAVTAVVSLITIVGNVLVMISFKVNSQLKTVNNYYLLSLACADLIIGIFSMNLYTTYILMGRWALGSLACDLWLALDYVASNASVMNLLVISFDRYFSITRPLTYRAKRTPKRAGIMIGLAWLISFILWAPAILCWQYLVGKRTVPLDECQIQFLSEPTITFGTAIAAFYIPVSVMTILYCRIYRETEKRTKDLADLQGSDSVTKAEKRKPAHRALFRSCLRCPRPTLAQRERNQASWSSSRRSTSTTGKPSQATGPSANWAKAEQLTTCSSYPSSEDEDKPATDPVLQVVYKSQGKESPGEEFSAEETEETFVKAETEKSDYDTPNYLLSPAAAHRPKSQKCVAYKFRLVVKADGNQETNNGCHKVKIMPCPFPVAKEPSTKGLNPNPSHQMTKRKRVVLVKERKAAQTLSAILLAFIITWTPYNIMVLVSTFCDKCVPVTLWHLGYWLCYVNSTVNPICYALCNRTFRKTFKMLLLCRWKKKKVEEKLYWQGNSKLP

[4] = biological target: T4, Muscarinic acetylcholine receptor M1 (Homo sapiens, UniProt P11229); experiment: Antagonist activity at recombinant human M1 receptor expressed in CHO cells co-expressing Gqi5 by calcium mobilization assay; type: functional, cell-based
T4 sequence (P11229 whole entry): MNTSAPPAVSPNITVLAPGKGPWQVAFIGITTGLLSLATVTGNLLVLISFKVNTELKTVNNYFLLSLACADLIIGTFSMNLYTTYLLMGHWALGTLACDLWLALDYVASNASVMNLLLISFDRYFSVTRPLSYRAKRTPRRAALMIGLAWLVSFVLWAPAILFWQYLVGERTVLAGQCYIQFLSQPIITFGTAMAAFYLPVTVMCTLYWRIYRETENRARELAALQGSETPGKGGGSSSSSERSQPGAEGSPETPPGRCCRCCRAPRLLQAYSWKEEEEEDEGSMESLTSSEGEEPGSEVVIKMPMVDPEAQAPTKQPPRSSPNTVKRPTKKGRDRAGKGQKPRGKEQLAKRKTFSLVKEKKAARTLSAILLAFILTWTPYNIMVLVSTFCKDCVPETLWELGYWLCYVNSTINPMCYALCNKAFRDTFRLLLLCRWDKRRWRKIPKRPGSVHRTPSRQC

[5] = biological target: T5, Muscarinic acetylcholine receptor M2 (Homo sapiens, UniProt P08172); experiment: Antagonist activity at recombinant human M2 receptor expressed in CHO cells co-expressing Gqi5 by calcium mobilization assay; type: functional, cell-based
T5 sequence (P08172 whole entry): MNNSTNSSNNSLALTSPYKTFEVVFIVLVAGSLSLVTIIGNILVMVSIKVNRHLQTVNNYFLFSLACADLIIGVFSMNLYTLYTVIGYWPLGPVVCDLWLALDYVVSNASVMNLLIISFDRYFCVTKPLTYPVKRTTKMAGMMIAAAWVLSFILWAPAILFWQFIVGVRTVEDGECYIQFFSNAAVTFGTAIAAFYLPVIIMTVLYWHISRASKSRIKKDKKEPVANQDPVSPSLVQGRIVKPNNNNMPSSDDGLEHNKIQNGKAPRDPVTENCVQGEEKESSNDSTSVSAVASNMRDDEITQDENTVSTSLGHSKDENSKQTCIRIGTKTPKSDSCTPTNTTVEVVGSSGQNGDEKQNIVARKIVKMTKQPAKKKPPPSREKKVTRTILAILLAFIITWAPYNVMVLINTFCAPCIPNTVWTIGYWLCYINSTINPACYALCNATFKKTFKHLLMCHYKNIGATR

[6] = biological target: T6, Muscarinic acetylcholine receptor M3 (Homo sapiens, UniProt P20309); experiment: Antagonist activity at recombinant human M3 receptor expressed in CHO cells co-expressing Gqi5 by calcium mobilization assay; type: functional, cell-based
Target sequence in this assay (P20309 whole entry): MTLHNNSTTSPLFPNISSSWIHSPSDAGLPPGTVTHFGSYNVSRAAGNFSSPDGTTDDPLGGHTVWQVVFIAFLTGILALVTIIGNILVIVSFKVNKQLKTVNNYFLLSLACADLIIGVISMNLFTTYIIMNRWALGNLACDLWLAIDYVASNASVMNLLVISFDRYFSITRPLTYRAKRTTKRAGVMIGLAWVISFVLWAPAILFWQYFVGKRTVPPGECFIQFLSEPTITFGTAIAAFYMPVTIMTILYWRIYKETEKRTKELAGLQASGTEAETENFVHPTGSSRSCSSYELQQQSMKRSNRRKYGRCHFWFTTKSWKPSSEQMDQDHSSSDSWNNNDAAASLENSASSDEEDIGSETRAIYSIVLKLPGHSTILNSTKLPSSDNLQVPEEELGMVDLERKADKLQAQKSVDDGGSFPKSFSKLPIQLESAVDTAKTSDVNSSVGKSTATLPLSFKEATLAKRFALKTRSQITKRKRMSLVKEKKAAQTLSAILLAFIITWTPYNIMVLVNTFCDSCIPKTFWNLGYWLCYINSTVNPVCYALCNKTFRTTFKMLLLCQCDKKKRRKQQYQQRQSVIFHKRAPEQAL

[7] = biological target: T1, Muscarinic acetylcholine receptor M4; experiment: Displacement of [3H]-NMS from recombinant human M4 receptor expressed in CHO cell membranes
[8] = biological target: T7, Muscarinic acetylcholine receptor M1 (Homo sapiens) (UniProt P11229); experiment: Antagonist activity at recombinant human M1 receptor expressed in CHO cells co-expressing Gqi5 by calcium mobilization assay relative to acetylcholine; type: functional, cell-based
T7 sequence (whole entry): T4 sequence (P11229 whole entry)

[9] = biological target: T8, Muscarinic acetylcholine receptor M2 (Homo sapiens) (UniProt P08172); experiment: Antagonist activity at recombinant human M2 receptor expressed in CHO cells co-expressing Gqi5 by calcium mobilization assay relative to acetylcholine; type: functional, cell-based
T8 sequence (whole entry): T5 sequence (P08172 whole entry)

[10] = biological target: T6, Muscarinic acetylcholine receptor M3; experiment: Antagonist activity at recombinant human M3 receptor expressed in CHO cells co-expressing Gqi5 by calcium mobilization assay relative to acetylcholine; type: functional, cell-based
Target sequence in this assay (P20309 whole entry, looked up): as the sequence (P20309 whole entry) above

[11] = biological target: T9, Muscarinic acetylcholine receptor M5 (Homo sapiens) (UniProt P08912); experiment: Antagonist activity at recombinant human M5 receptor expressed in CHO cells co-expressing Gqi5 by calcium mobilization assay relative to acetylcholine; type: functional, cell-based
T9 sequence (whole entry): T3 sequence (P08912 whole entry)

Structure (SMILES): O=C(C1CCN(c2cc(Oc3ccc(F)cc3)ncn2)CC1)N1CCc2ccccc2C1
- IC50 ([1]; read-out: IC50): 240 nM
- IC50 ([1]; read-out: pIC50 (converted)): 229 nM
- Emin [2]: 3.5%

Structure (SMILES): O=C(C1CCN(c2cc(Oc3ccc4ccccc4c3)ncn2)CC1)N1CCc2ccccc2C1
- Emin [2]: 6.8%

Structure (SMILES): O=C(C1CCN(c2cc(Oc3ccc4c(c3)OCO4)ncn2)CC1)N1CCc2ccccc2C1
- IC50 ([1]; read-out: IC50): 510 nM
- Emin [2]: 4.1%

Structure (SMILES): CN(Cc1ccccc1)C(=O)C1CCN(c2cc(Oc3ccc(F)cc3F)ncn2)CC1
- IC50 ([1]; read-out: IC50): > 10000 nM

Structure (SMILES): O=C(C1CCN(c2cc(Oc3ccc(F)cc3F)ncn2)CC1)N1CCc2ccccc2C1
- IC50 [3]: 510 nM
- IC50 ([1]; read-out: IC50): 100 nM
- Emin [2]: 3%
- IC50 [4]: 250 nM
- IC50 [5]: 330 nM
- IC50 [6]: 380 nM
- Ki [7]: 10.3 nM
- Emin [8]: < 6%
- Emin [9]: < 6%
- Emin [10]: < 6%
- Emin [11]: < 6%

Structure (SMILES): O=C(C1CCN(c2cc(Oc3ccc(Cl)cc3Cl)ncn2)CC1)N1CCc2ccccc2C1
- IC50 ([1]; read-out: IC50): 270 nM
- Emin [2]: 3%

Structure (SMILES): O=C(C1CCN(c2cc(Oc3ccc(F)cc3F)ncn2)CC1)N1CCCc2ccccc2C1
- IC50 ([1]; read-out: IC50): 1040 nM
- Emin [2]: 6%

Structure (SMILES): COc1ccc(Oc2cc(N3CCC(C(=O)N4CCc5ccccc5C4)CC3)ncn2)cc1
- IC50 ([1]; read-out: IC50): 460 nM
- Emin [2]: 5.3%

Structure (SMILES): O=C(C1CCN(c2cc(Oc3ccc(F)cc3F)ncn2)CC1)N1CCC2CCCCC2C1 (centres undefined)
- IC50 ([1]; read-out: IC50): 410 nM
- Emin [2]: 5.1%

Structure (SMILES): O=C(C1CCN(c2cc(Oc3ccccc3)ncn2)CC1)N1CCc2ccccc2C1
- IC50 ([1]; read-out: IC50): 650 nM
- IC50 ([1]; read-out: pIC50 (converted)): 617 nM
- Emin [2]: 2.7%

Structure (SMILES): O=C(C1CCN(c2cc(Oc3ccc(Cl)cc3F)ncn2)CC1)N1CCc2ccccc2C1
- IC50 ([1]; read-out: IC50): 150 nM
- Emin [2]: 3.1%

Structure (SMILES): COc1ccc2c(c1)CCN(C(=O)C1CCN(c3cc(Oc4ccc(F)cc4F)ncn3)CC1)C2
- IC50 ([1]; read-out: IC50): 580 nM
- IC50 ([1]; read-out: pIC50 (converted)): 562 nM
- Emin [2]: 5.5%
